Results as given in patent US7018654B2, “Pharmaceutical composition containing an active agent in an amino acid copolymer structure” (New River Pharmaceuticals Inc., priority 1999, dated 2006).

Columns and labels:
[1] = In vitro stability of glutamine by incubation in 0.2 M phosphate buffer at pH 9.0; type: physicochemical; conditions: pH 9.0, 37° C., same conditions
Method: The product of Example 2 was tested for stability and compared to monomeric glutamine by incubation in 0.2 M phosphate buffer at pH 9.0 as described by Price and Greenstein (J. Biol. Chem. vol. 180. p. 209, 1949), incorporated herein by reference.

[2] = Stability of Gln measured by production of free ammonia in 0.2 M phosphate buffer; type: physicochemical
[3] = tested on: cultured human amniocytes; conditions: 0.8% solution in alpha-MEM without glutamine, with insulin and transferrin, pH 7.2

| Stability of Gln, production of free ammonia (result in words) [2] | Compound | Stability of glutamine (result in words) [1] | Growth of cultured cells with no addition of monomeric L-glutamine [3] |
| --- | --- | --- | --- |
| almost completely de-amidated | NC(=O)CC[C@H](N)C(=O)O [monomeric glutamine, glutamine] | extensive degradation to ammonia and pyrrolidonecarboxylic acid |  |
|  | Glutamic Acid/Glutamine Co-Polymer [Example 19] |  | support growth of cultured human amniocytes, through multiple passages |
